Patent publication US6818639B2, “Pharmaceutical combination formulation and method of treatment with the combination” (Biovitrum AB, priority 2000, dated 2004)
Like-named read-outs stand apart in the source and are kept apart here.

Columns and labels:
ob/ob mice = experiment: Food intake test in ob/ob mice; format: in vivo
Protocol: 5-HT2C receptor agonists (2R)-methyl-1-{3-[2-(3-pyridinyloxy)ethoxy]-2-pyrazinyl}piperazine, fumarate (“PNU-183933F”) and (2R)-1-(3-{2-[(2-ethoxy-3-pyridinyl)oxy]ethoxy}-2-pyrazinyl)-2-methylpiperazine, fumarate (“BVT.2938F”) were dissolved in saline (0.9% NaCl) and diluted in the same vehicle to the appropriate concentration.
5-HT6 receptor antagonists 6-methyl-9-(phenylsulfonyl)-1,2,3,4,5,6-hexahydroazepino[4,5-b]indole, hydrochloride (“PNU-186053A”) and 1-(phenylsulfonyl)-4-(1-piperazinyl)-1H-indole, hydrochloride (5-HT6 receptor antagonist (“BVT.5182C”) were dissolved and diluted in 25% cyclodextrin.
Male mice 8-9 weeks old (C57BL/6JBom-Lep^ob (ob/ob), Bomholtsgaard, Denmark) with an average body weight of 45 g were used. The animals were housed singly in cages at 23±1° C., 40-60% humidity and had free access to water and standard laboratory chow. The 12/12 h light/dark cycle was set to lights off at 5 p.m. The animals were conditioned for at least one week before start of study. During experimental sessions, the animals obtained special chow (BioServ, Frenchtown, N.J., USA dust-free precision pellets weighing 20 mg each).
At the start of the study the animals were transferred to special cages “operant test cages” (Habitest Modular Animal Behavior Test System; Colbourn Instr, Allentown, Pa., USA). These cages consist of a feeder trough with sensors for measurement of food intake, an optic lickometer for registration of water intake and an infrared-based monitor for recording overall general motor activity. The monitors are coupled to a computer, which controls and monitor events continuously. Food pellets were weighed to the amount needed for one whole study and water bottles were filled with fresh tap water and weighed. The animals were conditioned to their new environment for three days to establish baseline values. The animals were weighed at 3 p.m. at the start and at the end of the study. The compounds were administered between 4.20 and 5.00 p.m. before dark onset. Three groups of animals received (i) 5-HT6 antagonist in 25% cyclodextrin; (ii) 5-HT2C agonist in saline; and (iii) the combination 5-HT2C agonist/5-HT6 antagonist, respectively. When combined, 5-HT6 antagonist or saline was administered 30 min before administration of the 5-HT2C agonist or 25% cyclodextrin. A fourth group received respectively vehicle administered in the same way. The study ended on the fifth day. Weighing was performed with a computer-assisted Mettler-Toledo PR5002/PR802 balance.
Each dose group consisted of 12-16 animals. […] The values were expressed as % of basal food intake (mean±SEM) for the difference between food intake before treatment and 3 h (5 pm-8 pm), 6 h (5 pm-11 pm), 12 h (5 pm-5 am), 21 h (5 pm-2 pm).

humans = details: cited from earlier work
[1] = system: mice that express the normal 5-HT2C receptor / mutated inactive form; details: cited from earlier work
[2] = combination BVT.2938F 5 mg/kg subcutaneously + BVT.5182C 3 mg/kg subcutaneously, at 12 and 21 hours following administration, FIG. 2
[3] = combination PNU-186053A 50 mg/kg subcutaneously + PNU-183933F 50 mg/kg per orally, FIG. 1

SMILES: CCOc1ncccc1OCCOc1nccnc1N1CCNC[C@H]1C.O=C(O)/C=C/C(=O)O [BVT.2938F, (2R)-1-(3-{2-[(2-ethoxy-3-pyridinyl)oxy]ethoxy}-2-pyrazinyl)-2-methylpiperazine, fumarate]
- food consumption (food intake), combined treatment vs compounds given alone (ob/ob mice; [2]): significantly more than the compounds given alone

SMILES: Cl.O=S(=O)(c1ccccc1)n1ccc2c(N3CCNCC3)cccc21 [BVT.5182C, 1-(phenylsulfonyl)-4-(1-piperazinyl)-1H-indole, hydrochloride]
- food consumption (food intake), combined treatment vs compounds given alone (ob/ob mice; [2]): significantly more than the compounds given alone

SMILES: C[C@@H]1CNCCN1c1nccnc1OCCOc1cccnc1.O=C(O)/C=C/C(=O)O [PNU-183933F, (2R)-methyl-1-{3-[2-(3-pyridinyloxy)ethoxy]-2-pyrazinyl}piperazine, fumarate]
- food consumption (food intake), combined treatment vs compounds given alone (ob/ob mice; [3]): decreased food consumption significantly more than the compounds given alone

SMILES: Cl.Cn1c2c(c3cc(S(=O)(=O)c4ccccc4)ccc31)CCNCC2 [PNU-186053A, 6-methyl-9-(phenylsulfonyl)-1,2,3,4,5,6-hexahydroazepino[4,5-b]indole, hydrochloride]
- food consumption (food intake), combined treatment vs compounds given alone (ob/ob mice; [3]): decreased food consumption significantly more than the compounds given alone

SMILES: Cn1c2c(c3ccccc31)CCNCC2 [U-22394A]
- body weight (humans; nine weeks of treatment): reduce body weight

SMILES: Clc1cccc(N2CCNCC2)c1 [m-CPP, m-chlorophenylpiperazine]
- food intake ([1]; mice expressing the mutated inactive form of the 5-HT2C receptor): lacks activity
- food intake ([1]; mice that express the normal 5-HT2C receptor): reduces food intake
- body weight (humans; two weeks of treatment): reduce body weight
